Laboratory results as given in patent US5914328A, “Heterocyclic ether compounds useful in controlling neurotransmitter release” (Abbott Laboratories, priority 1995, dated 1999).
Structures can show the parent of a compound that is named as a salt. Where two headings read alike, the source gives them in different places.

Assays:
[1] = system: nAChR evoked release of [3H]-dopamine; assay: Striatal dopamine release ([3H]-dopamine, superfused rat striatal slices); type: cell-based; details: standard 100 nM (-)-nicotine = 1.0
Procedure: The protocol for this procedure follows below.
A. Protocol for Determination of Striatal Dopamine Release.
nAChR evoked release of [ring-2,5,6-^3 H]-dopamine (24.4 Ci/mmol) was measured in superfused rat striatal slices. Striata were dissected from two male Sprague-Dawley rats per experiment and sliced 0.35×0.25 mm by a McIlwain Tissue Chopper (Brinkman Instrument Co., Westbury, N.Y.). After two washes with Krebs-HEPES buffer (137 mM NaCl, 4.7 mM KCl, 1 mM MgSO4, 2.5 mM CaCl2, 1.25 mM NaH2 PO4, 10 mM glucose, 15 mM HEPES-NaOH, pH 7.4, containing 10 μM pargyline and 10 μM ascorbic acid), slices were preincubated for 10 minutes at […] under 95%/5% O2 /CO2. After replacing the buffer, slices were labeled with […] [^3 H]-dopamine for 25 min in Krebs-HEPES at […] Aliquots of slices were placed in 18 superfusion chambers of a Brandel SP2000 superfusion apparatus (Brandel, Gaithersberg, Md.). Following 47 minutes of washout, slices were exposed to agonist at various concentrations for4 minutes. Antagonists or inhibitors, when present were introduced 4 minutes prior to and during agonist exposure. Collected fractions were counted in 5 mL of Ecolume. Tissue was recovered from superfusion chambers, solubilized with 1 mL of Solvable™ (DuPont-NEN) and counted in 15 mL of Ecolume. Fractional release of [^3 H]-dopamine was calculated from radioactivity above baseline as a fraction of total radioactivity.

[2] = molecular target: neuronal nicotinic cholinergic channel receptor; assay: Binding of [3H]-cytisine to neuronal nicotinic receptors, whole rat brain synaptic membranes
Procedure: B. Protocol For Determination of Nicotinic Cholinergic Channel Receptor Binding Potencies of Ligands
Binding of [^3 H]-cytisine ([^3 H]-CYT) to nicotinic receptors was accomplished using crude synaptic membrane preparations from whole rat brain (Pabreza et al., Molecular Pharmacol., 1990, 39:9). Washed membranes were stored at -80° C. prior to use. Frozen aliquots were slowly thawed and resuspended in 20 volumes of buffer (containing: 120 mM NaCl, 5 mM KCl, 2 mM MgCl2, 2 mM CaCl2 and 50 mM Tris-Cl, pH 7.4 @4° C.). After centrifuging at 20,000×g for 15 minutes, the pellets were resuspended in 30 volumes of buffer. Homogenate (containing […]) was added to triplicate tubes containing concentrations of test compound and [^3 H]-CYT (1.25 nM) in a final volume of 500 μL. Samples were incubated for 60 minutes at 4° C., then rapidly filtered through Whatman GF/B filters presoaked in 0.5% polyethylimine using 3×4 mL of ice-cold buffer. The filters are counted in 4 mL of Ecolume® (ICN). […] Alternately, data were expressed as a percentage of the total specific binding.

[3] = system: cholinergic ligand-gated channels; assay: Cholinergic channel activation in PC12 cells, whole-cell patch-clamp; type: cell-based; details: whole-cell patch-clamp current
From the text: D. Protocols for the Determination of Cholinergic Channel Activation in PC12 Cells.
The cholinergic channel activator properties of Example 9 were investigated in PC12 cells using the whole-cell patch-clamp approach to measure current flow through ligand-gated membrane channels.

[4] = example concentration 10 μM (*)
[5] = read-out: Receptor Binding Ki (Table 2)
[6] = example concentration 1 μM (**)
[7] = read-out: Receptor Binding Ki (Table 1)
[8] = example concentration 0.1 μ (***)

With `Cc1ccncc1OC[C@@H]1CCCN1C.Cl.Cl` [Example 46, 4-methyl-3-((1-methyl-2-(S)-pyrrolidinyl)methoxy)pyridine dihydrochloride] the “Dopamine Release relative to Nicotine” value [1, 4] was 0.85.

Compound `Cc1ncccc1OC[C@@H]1CCN1` [Example 29, 2-methyl-3-(2-(S)-azetidinylmethoxy)pyridine dihydrochloride] has a Ki [2, 5] of 1.3 nM.

`CN1CCC[C@H]1COc1cncc(Cl)c1` [Example 16, 5chloro-3-((1-methyl-2-(S)-pyrrolidinyl)methoxypyridinedihydrochloride] was tested, and the “Dopamine Release relative to Nicotine” value [1, 6] was 1.0.

For `Cc1ccc(OC[C@@H]2CCN2C)cn1.Cl.Cl` [Example 59, 3-((1-methyl-2-(S)-azetidinyl)methoxy)-6-methylpyridine dihydrochloride], the “Dopamine Release relative to Nicotine” value [1, 4] was 0.7.

In the case of `Cl.Cl.c1cncc(OC[C@@H]2CCN2)c1` [Example 9, 3-(2-(S)-azetidinylmethoxy)pyridine dihydrochloride], the “Dopamine Release relative to Nicotine” value [1, 4] is reported as 1.0 and the “cholinergic channel activator properties (in words)” value [3] is reported as “clear agonist activity”.

With `Clc1ccc(OC[C@@H]2CCN2)cn1` [Example 52, 3-(2-(S)-azetidinylmethoxy)-6-chloropyridine dihydrochloride] the “Dopamine Release relative to Nicotine” value [1, 4] was 1.0.

`c1cncc(OC[C@@H]2CCCN2)c1` [Example 14, 3-(2-(S)-pyrrolidinylmethoxypyridine fumarate] was tested, and the Ki [2, 7] was 0.14 nM and the “Dopamine Release relative to Nicotine” value [1, 6] was 1.0.

In the case of `CN1CCC[C@H]1COc1cccnc1.O=C(O)/C=C/C(=O)O` [Example 4, 3-((1-methyl-2-(S)-pyrrolidinyl)methoxy)pyridine fumarate], the “Dopamine Release relative to Nicotine” value [1, 4] is reported as 1.0.

Work on `CC(Oc1cccnc1)[C@@H]1CCCN1C` (stereo partly drawn) [Example 6, 3-(a-methyl-(1-methyl-2-(S)-pyrrolidinyl)methoxy)pyridine hydrochloride] yielded a Ki [2, 5] of 6.7 nM.

`CCN1CCC[C@H]1COc1cccnc1.Cl.Cl` [Example 38, 3-((1-ethyl-2(S)-pyrrolidinyl)methoxy)pyridine dihydrochloride] was tested, and the “Dopamine Release relative to Nicotine” value [1, 4] was 0.6.

`Cc1ccc(OCC2CCCN2)cn1` (stereo not shown) [Example 37, 6methyl-3-(2-(R-pyrrolidinylmethoxy)pyridinedihydrochloride] was tested, and the Ki [2, 7] was 0.5 nM and the “Dopamine Release relative to Nicotine” value [1, 4] was 0.8.

For `Cl.Cl.Clc1cncc(OC[C@H]2CCCN2)c1` [Example 33, 5-chloro-3-(2-(R)-pyrrolidinylmethoxy)pyridine dihydrochloride], the “Dopamine Release relative to Nicotine” value [1, 6] was 0.62.

In the case of `Cc1ccc(OC[C@@H]2CCCN2)cn1.Cl.Cl` [Example 18, 6-methyl-3-(2-(S)-pyrrolidinylmethoxy)pyridine dihydrochloride], the “Dopamine Release relative to Nicotine” value [1, 8] is reported as 1.0.

With `CN1CC[C@H]1COc1cnccn1.Cl.Cl` [Example 8, 2-((1-methyl-2-(S)-azetidinyl)methoxy)pyrazine dihydrochloride] the “Dopamine Release relative to Nicotine” value [1, 4] was 0.55.

For `CN1CC[C@H]1COc1cccnc1` [Example 10, 3-((1-methyl-2-(S)-azetidinyl)methoxypyridinedihydrochloride], the Ki [2, 7] was 0.25 nM and the “Dopamine Release relative to Nicotine” value [1, 4] was 1.0.

`CN1CCCCC1COc1cccnc1` (stereo not shown) [Example 26, 3-((1-methyl-2-piperidinyl)methoxy)pyridine oxalate salt] was tested, and the Ki [2, 5] was 76 nM.

For `CN1CCC[C@H]1CCOc1cccnc1.Cl.Cl` [Example 103, 3-(2-(1-methyl-2-(S)-pyrrolidinyl)ethoxy)pyridine dihydrochloride], the “Dopamine Release relative to Nicotine” value [1, 4] was 0.3.

Compound `c1cnc(OC[C@@H]2CCN2)cn1` [Example 7] has a Ki ([2]; [3H]-cytisine 1.25 nM, rat brain membranes, 4° C., Table 2, read-out: Receptor Binding Ki (Table 2)) of 0.44 nM.

For `Cc1ccc(OC[C@@H]2CCCN2C)cn1.Cl.Cl` [Example 19, 6methyl-3-((1-methyl-2-(S)-pyrrolidinyl)methoxy)pyridine dihydrochloride], the Ki [2, 7] was 1.47 nM and the “Dopamine Release relative to Nicotine” value [1, 8] was 0.78.

Work on `Cc1ccc(OC[C@H]2CCCN2C)cn1` [Example 36, 6-methyl-3-((1-methyl-2-(R)-pyrrolidinyl)methoxy)pyridine dihydrochloride] yielded a Ki [2, 5] of 26 nM.

With `CN1CCC[C@@H]1COc1cccnc1.Cl` [Example 1, 3-((1-methyl-2-(R)-pyrrolidinyl)methoxy)pyridine hydrochloride] the “Dopamine Release relative to Nicotine” value [1, 4] was 0.08.

With `C[C@@H]1C[C@@H](COc2cccnc2)N(C)C1` [Example 24, 3-((trans-1,4dimethyl-2(S)-pyrrolidinone)methoxy)pyridine dihydrochloride] the Ki [2, 5] was 4.2 nM.

In the case of `CN1CCC[C@H]1COc1cnc2ccccc2c1.Cl` [Example 31, 3-(1-methyl-2-(S)-pyrrolidinylmethoxy)quinoline hydrochloride], the “Dopamine Release relative to Nicotine” value [1, 4] is reported as 0.15.
